Laboratory results reported in ChEMBL document CHEMBL1152717, “Discovery of mu-opioid selective ligands derived from 1-aminotetralin scaffolds made via metal-catalyzed ring-opening reactions” (Bioorg Med Chem Lett, 2009).

Tests used:
[1] = target: Delta-type opioid receptor (Homo sapiens, UniProt P41143); experiment: Displacement of [125I]deltorphin 2 from human cloned delta opioid receptor
[2] = target: Kappa-type opioid receptor (Homo sapiens, UniProt P41145); experiment: Displacement of [125I]U69593 from human cloned kappa opioid receptor
Chain of Kappa-type opioid receptor (P41145 whole entry): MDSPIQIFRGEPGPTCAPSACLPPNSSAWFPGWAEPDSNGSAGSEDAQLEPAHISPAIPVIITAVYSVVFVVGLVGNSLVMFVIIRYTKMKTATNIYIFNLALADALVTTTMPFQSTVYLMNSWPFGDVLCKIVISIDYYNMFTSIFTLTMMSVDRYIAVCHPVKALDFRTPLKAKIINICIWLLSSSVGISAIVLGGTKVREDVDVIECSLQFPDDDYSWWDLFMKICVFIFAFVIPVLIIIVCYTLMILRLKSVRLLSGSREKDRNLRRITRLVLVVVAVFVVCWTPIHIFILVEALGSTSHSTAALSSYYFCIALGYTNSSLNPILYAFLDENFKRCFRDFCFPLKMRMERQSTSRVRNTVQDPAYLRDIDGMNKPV

Mu-type opioid receptor [3] = target: T1, Mu-type opioid receptor (Homo sapiens, UniProt P35372); details: at 100 µM
T1 sequence (P35372 whole entry): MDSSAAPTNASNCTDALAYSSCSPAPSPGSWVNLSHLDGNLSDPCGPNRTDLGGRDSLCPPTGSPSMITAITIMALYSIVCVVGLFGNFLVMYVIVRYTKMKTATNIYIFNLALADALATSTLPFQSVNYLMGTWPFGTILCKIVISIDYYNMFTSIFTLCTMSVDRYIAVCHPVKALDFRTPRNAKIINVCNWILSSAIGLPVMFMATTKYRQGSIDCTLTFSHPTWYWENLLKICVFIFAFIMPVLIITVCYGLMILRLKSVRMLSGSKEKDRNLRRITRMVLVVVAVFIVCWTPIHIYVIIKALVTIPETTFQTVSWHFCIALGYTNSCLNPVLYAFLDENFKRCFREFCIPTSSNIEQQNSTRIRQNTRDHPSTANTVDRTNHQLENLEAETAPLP
Description: Intrinsic activity at human cloned mu opioid receptor at 100 uM by [35S]GTPgammaS binding assay relative to DAMGO

Mu-type opioid receptor [4] = target: T1, Mu-type opioid receptor; experiment: Agonist activity at human cloned mu opioid receptor by [35S]GTPgammaS binding assay; type: functional
Mu-type opioid receptor [5] = target: T1, Mu-type opioid receptor; experiment: Displacement of [125I]FK33824 from human cloned mu opioid receptor

Chain of Delta-type opioid receptor (P41143 whole entry): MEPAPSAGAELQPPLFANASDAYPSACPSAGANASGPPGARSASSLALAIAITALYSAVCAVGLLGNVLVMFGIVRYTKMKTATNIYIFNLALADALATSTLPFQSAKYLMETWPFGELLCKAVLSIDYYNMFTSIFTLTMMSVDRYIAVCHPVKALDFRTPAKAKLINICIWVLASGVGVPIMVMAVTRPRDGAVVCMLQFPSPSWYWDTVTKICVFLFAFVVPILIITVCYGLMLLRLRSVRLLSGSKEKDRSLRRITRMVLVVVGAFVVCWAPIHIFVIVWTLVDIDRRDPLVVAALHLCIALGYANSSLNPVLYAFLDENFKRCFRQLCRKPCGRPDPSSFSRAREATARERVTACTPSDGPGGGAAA

SMILES	IC50 [1]	IC50 [2]	Emax (Mu-type opioid receptor [3])	EC50 (Mu-type opioid receptor [4])	IC50 (Mu-type opioid receptor [5])
COCCN(C(=O)COCc1ccccc1)C1c2ccccc2C=CC1N1CCN(c2ccccc2)CC1 (racemic)	3890 nM	> 10000 nM	10%	> 90000 nM	211 nM
COCCN[C@@H]1c2ccccc2CC[C@H]1c1ccsc1	3800 nM	707 nM			
C[C@@]12CCCCC[C@@H](Cc3ccc(O)cc31)[C@@H]2N			6%		
COCCN(C(=O)c1sccc1Cl)[C@@H]1c2ccccc2C=C[C@H]1N1CCN(c2ccccc2)CC1	1240 nM	1320 nM			58 nM
COCCNC1c2ccccc2CCC1c1ccsc1 (racemic)		2210 nM			
COCCN(C(=O)Cc1cccc(OC)c1)C1c2ccccc2C=CC1N1CCN(c2ccccc2)CC1 (racemic)	1470 nM	> 10000 nM	10%	> 90000 nM	151 nM
COCCN(C(=O)c1cc(C)nn1C)C1c2ccccc2CCC1c1ccsc1 (racemic)	1270 nM	> 10000 nM			4860 nM
COCCN(C(=O)Cc1ccc(Cl)cc1)C1c2ccccc2C=CC1N1CCN(c2ccccc2)CC1 (racemic)	1950 nM	7990 nM	0%	> 90000 nM	181 nM
COCCN(C(=O)c1sccc1Cl)C1c2ccccc2C=CC1N1CCN(c2ccccc2)CC1 (racemic)	2290 nM	7140 nM	0%	> 90000 nM	100 nM
COCCN(C(=O)c1sccc1Cl)[C@H]1c2ccccc2C=C[C@@H]1N1CCN(c2ccccc2)CC1					2800 nM
COCCN(C(=O)c1ccc(Cl)c(Cl)c1)C1c2ccccc2C=CC1N1CCN(c2ccccc2)CC1 (racemic)	3620 nM	> 10000 nM	60%	> 90000 nM	443 nM
